{"source": "patent US10300092B2", "about": "“Bee bloom compositions, methods of extraction and uses thereof” (KANE, Penny Coleen, priority 2011, dated 2019)", "tested_on": "sensitized rat intestine", "test": "In vitro anaphylaxis: ovalbumin (antigen)-induced contractile response of sensitized rat intestine in organ bath", "assay_type": "cell-based", "conditions": "control peptide feG 10^−8 M", "method": "Data are expressed as the mean +/− standard error. The data were analyzed using Student's t test for paired samples. Significant differences were accepted if p <0.05. Outlier analysis was performed using a modified Z-score that uses the median of absolute deviation A Z-score with an absolute value of greater than 4.0 was labeled as a potential outlier, and the corresponding data value was excluded.\nMale Sprague Dawley rats (Charles River Laboratories, Montreal, QC) of initial weights of 150 g were maintained with lights on from 700 to 1900 h and given food and water ad libitum. The rats were sensitized to 1 mg ovalbumin (OA) using 50 ng of pertussis toxin (Sigma-Aldrich, St. Louis, Mo.) as an adjuvant.\nFive to eight weeks following sensitization, the terminal duodenum of the rats was excised and 1 cm sections were mounted in 25 ml organ baths, containing bicarbonate Krebs′ buffer, with 1.0 g of tension. The isometric force generated in response to OA and carbachol (CAR; (2-[(aminocaronyl)oxyl-N,N,N-trimethylethanaminium), a cholinergic agonist, (Sigma-Aldrich) was measured using a Grass Force Displacement Transducer FTO3 (Quincy, MA>. Data were recorded with PolyView software (Polybytes, Inc., Cedar Rapids, Iowa). The tissues were allowed to equilibrate for 30 min during which they were washed several times with buffer, and applied tension was adjusted.\nEight tissue segments were mounted in separate tissue baths, with one tissue segment serving to evaluate if the intestinal tissues elicit a contractile response to the antigen. […] In the absence of a contractile response to antigen the tissues were discarded, and another animal taken.\nOnce peak contractile responses were attained the tissues were washed three times, baseline re-established and peak contractile response to 10^−5M CAR obtained. The mucosa was then scraped from the tissue, and the mass of the muscle determined. Responses were determined as grams of force/mg wet tissue.\nContractile responses to OA and CAR were measured at peak contraction, and calculated as grams of force per gram wet tissue. Results are expressed in three formats: • i) the amplitude of the OA-induced contractile response (grams of force/mg wet tissue), • ii) the ratio of the Bee Bloom response to the OR response (Bee Bloom/OA) (i.e. animal matched control), • iii) the ratio of the OA and CAR-induced contractile responses (ONCAR) (i.e. tissue matched controls)."}
{"substance": "D-phenylalanine-D-glutamate-Glycine [control]", "values": [{"measurement": "inhibition of antigen-induced contractions (FIGS. 1 and 2)", "value": "significantly inhibited"}, {"measurement": "inhibition of antigen-induced contractions, ratio to OA response, animal matched control (FIG. 3)", "value": "significantly inhibited"}, {"measurement": "inhibition of the OA:CAR ratio, tissue matched controls (FIG. 4)", "value": "did not significantly inhibit"}, {"measurement": "inhibition of antigen-induced contractions", "setting": "stated as closely matched by Bee Bloom", "value": "~−40", "unit": "%"}]}
